Test results published in article PMC12114630 (Pharmaceuticals, 2025).
Where two headings read alike, the source gives them in different places.

Legend:
D4R (hD4.4R) = target: T1, D4R (hD4.4R) (Homo sapiens, UniProt P21917); assay: [3H]N-methylspiperone competition, membranes; format: binding; conditions: read-out: pKi / D4R (converted)
T1 construct: gene DRD4; human cloned receptor stably expressed in HEK293 cells; membranes
T1 sequence (P21917 1-419): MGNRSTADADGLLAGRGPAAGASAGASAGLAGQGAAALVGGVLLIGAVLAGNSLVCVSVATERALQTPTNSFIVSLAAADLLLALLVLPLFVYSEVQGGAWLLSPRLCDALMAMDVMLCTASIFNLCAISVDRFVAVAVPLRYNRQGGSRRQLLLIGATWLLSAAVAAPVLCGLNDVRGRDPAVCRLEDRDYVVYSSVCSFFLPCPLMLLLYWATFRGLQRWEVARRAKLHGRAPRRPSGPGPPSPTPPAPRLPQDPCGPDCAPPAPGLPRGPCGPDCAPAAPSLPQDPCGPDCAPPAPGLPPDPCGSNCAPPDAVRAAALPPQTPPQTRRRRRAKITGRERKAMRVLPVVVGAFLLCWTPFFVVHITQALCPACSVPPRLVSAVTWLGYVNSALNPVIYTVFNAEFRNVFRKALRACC
Excerpt: [3H]N-methylspiperone competition, membranes on D4R (hD4.4R)

D4R (BRET assay) [1] = target: T2, D4R (BRET assay) (Homo sapiens, UniProt P21917); assay: BRET Go activation, agonist mode; format: cell-based; conditions: read-out: 16 (converted)
T2 construct: gene DRD4; expressed in HEK293T cells for BRET functional assays
T2 sequence (P21917 1-419): T1 sequence (P21917 1-419)

D2R (hD2R) = target: T3, D2R (hD2R) (Homo sapiens, UniProt P14416); assay: [3H]N-methylspiperone competition, membranes; format: binding; conditions: read-out: pKi / D2R (converted)
T3 construct: gene DRD2; human cloned receptor stably expressed in HEK293 cells; membranes
Excerpt: [3H]N-methylspiperone competition, membranes on D2R (hD2R)

D3R (hD3R) = target: T4, D3R (hD3R) (Homo sapiens, UniProt P35462); assay: [3H]N-methylspiperone competition, membranes; format: binding; conditions: read-out: pKi / D3R (converted)
T4 construct: gene DRD3; human cloned receptor stably expressed in HEK293 cells; membranes
Excerpt: [3H]N-methylspiperone competition, membranes on D3R (hD3R)

D4R (BRET assay) [2] = target: T2, D4R (BRET assay); assay: BRET Go activation, antagonist mode; format: cell-based

T4 sequence (P35462 whole entry): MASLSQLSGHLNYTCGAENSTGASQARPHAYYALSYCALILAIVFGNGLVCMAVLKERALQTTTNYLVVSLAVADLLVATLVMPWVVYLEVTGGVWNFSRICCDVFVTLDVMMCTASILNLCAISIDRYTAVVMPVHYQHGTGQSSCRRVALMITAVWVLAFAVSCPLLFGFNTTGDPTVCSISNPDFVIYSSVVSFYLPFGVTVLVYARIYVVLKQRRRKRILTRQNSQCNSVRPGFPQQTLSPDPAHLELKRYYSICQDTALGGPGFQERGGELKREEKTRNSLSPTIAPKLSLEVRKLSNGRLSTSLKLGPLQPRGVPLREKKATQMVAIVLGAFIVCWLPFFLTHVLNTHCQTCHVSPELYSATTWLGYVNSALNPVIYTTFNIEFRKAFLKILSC
T3 sequence (P14416 whole entry): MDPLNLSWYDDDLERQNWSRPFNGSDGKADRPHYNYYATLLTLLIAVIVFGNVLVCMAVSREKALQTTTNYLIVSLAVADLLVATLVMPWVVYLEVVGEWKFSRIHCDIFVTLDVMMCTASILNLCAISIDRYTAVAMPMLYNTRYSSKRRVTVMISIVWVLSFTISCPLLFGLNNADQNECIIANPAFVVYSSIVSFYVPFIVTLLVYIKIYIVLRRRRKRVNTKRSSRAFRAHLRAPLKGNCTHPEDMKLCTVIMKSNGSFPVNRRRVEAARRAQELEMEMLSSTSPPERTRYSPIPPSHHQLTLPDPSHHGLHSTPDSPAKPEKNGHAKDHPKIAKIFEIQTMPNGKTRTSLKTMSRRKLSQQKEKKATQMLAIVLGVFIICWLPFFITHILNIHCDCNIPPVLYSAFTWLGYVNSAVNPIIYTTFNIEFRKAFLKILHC

Row | Compound | Ki (D4R (hD4.4R)) [nM] | EC50 (D4R (BRET assay) [1]) [nM] | Ki (D2R (hD2R)) [nM] | Ki (D3R (hD3R)) [nM] | IC50 (D4R (BRET assay) [2]; read-out: 16 (converted)) [nM] | IC50 (D4R (BRET assay) [2]; read-out: 12 (converted)) [nM]
1 | O=C1CCc2ccccc2N1CCCC1CCN(Cc2ccccc2)CC1 [compound 16, 1-(3-(1-Benzylpiperidin-4-yl)propyl)-3,4-dihydroquinolin-2(1H)-one] | 1.62 | 4.37 | 3630 | 2000 | 61.7 | –
2 | O=C1CCc2ccccc2N1CCCCN1CCC(Cc2ccccc2)CC1 [compound 13, 1-(4-(4-Benzylpiperidin-1-yl)butyl)-3,4-dihydroquinolin-2(1H)-one] | 22.4 | – | 1070 | 302 | – | –
3 | O=C1CCc2ccccc2N1CCN1CCC(Cc2ccccc2)CC1 [compound 12, 1-(2-(4-Benzylpiperidin-1-yl)ethyl)-3,4-dihydroquinolin-2(1H)-one] | 0.661 | – | 661 | 933 | – | 214
4 | CCCCC1CCN(CCCCN2C(=O)CCc3ccccc32)CC1 [compound 10, 1-(4-(4-Butylpiperidin-1-yl)butyl)-3,4-dihydroquinolin-2(1H)-one] | 23.4 | – | 1350 | 309 | – | –
5 | O=C1CCc2ccccc2N1CCCN1CCc2ccccc2C1 [compound 20, 1-(3-(3,4-Dihydroisoquinolin-2(1H)-yl)propyl)-3,4-dihydroquinolin-2(1H)-one] | 28.2 | – | 447 | 229 | – | –
6 | CCCCN1CCC(CCCN2C(=O)CCc3ccccc32)CC1 [compound 15, 1-(3-(1-Butylpiperidin-4-yl)propyl)-3,4-dihydroquinolin-2(1H)-one] | 759 | – | 10200 | 1070 | – | –
7 | O=C1CCc2ccccc2N1CCCN1CC=C(c2ccccc2)CC1 [compound 19, 1-(3-(4-Phenyl-3,6-dihydropyridin-1(2H)-yl)propyl)-3,4-dihydroquinolin-2(1H)-one] | 1.51 | – | 575 | 245 | – | –
8 | O=C1CCc2ccccc2N1CCC1CCN(Cc2ccccc2)CC1 [compound 17, 1-(2-(1-Benzylpiperidin-4-yl)ethyl)-3,4-dihydroquinolin-2(1H)-one] | 302 | – | 12600 | 8130 | – | –
9 | CCCCC1CCN(CCCCCN2C(=O)CCc3ccccc32)CC1 [compound 11, 1-(5-(4-Butylpiperidin-1-yl)pentyl)-3,4-dihydroquinolin-2(1H)-one] | 52.5 | – | 302 | 288 | – | –
10 | O=C1CCc2ccccc2N1CC1CCN(Cc2ccccc2)CC1 [compound 18, 1-((1-Benzylpiperidin-4-yl)methyl)-3,4-dihydroquinolin-2(1H)-one] | 275 | – | 13200 | 7590 | – | –
11 | CCCCC1CCN(CCN2C(=O)CCc3ccccc32)CC1 [compound 9, 1-(2-(4-Butylpiperidin-1-yl)ethyl)-3,4-dihydroquinolin-2(1H)-one] | 17.4 | – | 8910 | 13200 | – | –
12 | O=C1CCc2ccccc2N1CCCCCN1CCC(Cc2ccccc2)CC1 [compound 14, 1-(5-(4-Benzylpiperidin-1-yl)pentyl)-3,4-dihydroquinolin-2(1H)-one] | 45.7 | – | 813 | 407 | – | –
